Laboratory results from patent US6841519B1, “Isoxazoline derivatives and herbicides containing the same as the active ingredient” (Kumiai Chemical Industry Co., Ltd., priority 1999, dated 2005).

Experiments:
[1] = test system: Polygonum lapathifolium L. subsp. nodosum (Pers.) Kitam. (Po); experiment: Test for herbicidal effect to broadleaf weeds by upland field soil treatment (Test Example 6), Po; type: in vivo; settings: 25 g/10 a active ingredient, 30th day
Protocol: (§1) Test for herbicidal effect to broadleaf weeds by upland field soil treatment
(§2) An upland field soil was filled in a plastic pot of 80 cm^2. Seeds of Polygonum lapathifolium L. subsp. nodosum (Pers.) Kitam. (Po) and Chenopodium album L. (Ch) were sowed, followed by covering with the same soil. Wettable powders produced in accordance with the Formulation 1 were diluted with water and sprayed uniformly on the soil surface using a small sprayer, […] Then, breeding was made in a greenhouse. At the 30th day from the treatment, the herbicidal effect of each wettable powder was examined in accordance with the standard shown in Table 40.

[2] = test system: Echinochloa crus-galli (L.) Beauv. var. crusgall (Ec); experiment: Test for herbicidal effect by upland field soil treatment (Test Example 2), Ec; type: in vivo; settings: application amount (active ingredient) 100 g/10 a, examined at the 21st day from the treatment, index per Table 40
Procedure, shortened: (§3)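 Echinochloa crus-galli and Setaria viridis were sown in upland field soil and covered, then the soil surface was sprayed with water-diluted wettable powder at 100 g active ingredient per 10 ares (100 liters per 10 ares). Plants were grown in a greenhouse and scored on a standard scale on day 21.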

[3] = test system: Monochoria vaginalis Presl (Mo); experiment: Test for herbicidal effect during breeding period by paddy field water treatment (Test Example 5), Mo; type: in vivo; settings: paddy field water treatment at 1-leaf stage, 25 g/10 a active ingredient, 30th day
Protocol: (§4) [table] <Test Example 5> Test For Herbicidal Effect During Breeding Period By Paddy Field Water Treatment A paddy field soil was filled in a plastic pot of 100 cm^2 and subjected to puddling. Seeds of Monochoria vaginalis Presl (Mo) and Scirpus juncoides Roxb. subsp. juncoides Roxb. (Sc) were sowed; water was filled in a depth of 3 cm; and breeding was made. When Mo reached a 1-leaf stage and Sc reached a 2-leaf stage, wettable powders produced in accordance with the Formulation 1 were diluted with water and dropped on the water surface. […] Then, breeding was made in a greenhouse. At the 30th day from the treatment, the herbicidal effect of each wettable powder was examined in accordance with the standard shown in Table 40.

[4] = test system: Setaria viridis (L.) Beauv. (Se); experiment: Test for herbicidal effect by upland field soil treatment (Test Example 2), Se; type: in vivo; settings: application amount (active ingredient) 100 g/10 a, examined at the 21st day from the treatment, index per Table 40
Procedure, shortened: as §3

[5] = test system: Scirpus juncoides Roxb. subsp. juncoides Roxb. (Sc); experiment: Test for herbicidal effect during breeding period by paddy field water treatment (Test Example 5), Sc; type: in vivo; settings: paddy field water treatment at 2-leaf stage, 25 g/10 a active ingredient, 30th day
Protocol: as §4

[6] = test system: Chenopodium album L. (Ch); experiment: Test for herbicidal effect to broadleaf weeds by upland field soil treatment (Test Example 6), Ch; type: in vivo; settings: 25 g/10 a active ingredient, 30th day
Protocol: as §1, §2

[7] = test system: Echinochloa crus-galli (L.) Beauv. var. crusgalli (Ec); experiment: Test for herbicidal effect by upland foliage treatment (Test Example 3); type: in vivo; settings: 100 g/10 a active ingredient, examined at 14th day
Procedure, shortened: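 Potted upland-soil Ec seedlings grown 2 weeks in greenhouse, then foliage-sprayed with water-diluted wettable powder at 100 L per 10 ares, giving 100 g active ingredient per 10 ares. Herbicidal effect scored on a graded standard 14 days after treatment.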

[8] = test system: Echinochloa oryzicola Vasing. (Eo); experiment: Test for herbicidal effect by paddy field soil treatment (Test Example 1); type: in vivo; settings: application amount (active ingredient) 100 g/10 a, examined at the 21st day from the treatment, index per Table 40
Procedure, shortened: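 Eo seeds sown in puddled paddy soil under 3 cm water; next day a water-diluted wettable powder was dropped onto the water surface at 100 g active ingredient per 10 ares. Herbicidal effect scored on a standard scale 21 days after treatment, greenhouse-grown.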

Row | Structure (SMILES) | melting point [°C] | Herbicidal effect to Po [1] | Herbicidal effect to Ec [2] | Herbicidal effect to Mo [3] | Herbicidal effect to Se [4] | Herbicidal effect to Sc [5] | Herbicidal effect to Ch [6] | Herbicidal effect to Ec [7] | Herbicidal effect to Eo [8]
1 | CC1(C)CC(S(C)(=O)=O)=NO1 [Compound 2-1, 3-methylsulfonyl-5,5-dimethyl-2-isoxazoline] | 82 to 84 | – | – | – | – | – | – | – | –
2 | CC1(C)CC(S(=O)(=O)Cc2c(F)cccc2F)=NO1 [Compound 1-39, 3-(2,6-difluorobenzylsulfonyl)-5,5-dimethyl-2-isoxazoline] | – | 4 (A herbicidal effect or phytotoxicity of 70% to less than 90%) | 5 (A herbicidal effect or phytotoxicity of 90% or more) | 5 (A herbicidal effect or phytotoxicity of 90% or more) | 5 (A herbicidal effect or phytotoxicity of 90% or more) | 5 (A herbicidal effect or phytotoxicity of 90% or more) | 5 (A herbicidal effect or phytotoxicity of 90% or more) | 5 (A herbicidal effect or phytotoxicity of 90% or more) | 5 (A herbicidal effect or phytotoxicity of 90% or more)
3 | CC1(C)CC(SCc2c(F)cccc2F)=NO1 [Compound 1-38, 3-(2,6-difluorobenzylthio)-5,5-dimethyl-2-isoxazoline] | 77 to 80 | – | 4 (A herbicidal effect or phytotoxicity of 70% to less than 90%) | – | 4 (A herbicidal effect or phytotoxicity of 70% to less than 90%) | – | – | – | 5 (A herbicidal effect or phytotoxicity of 90% or more)
4 | CC(C)Oc1ccccc1CS(=O)(=O)C1=NOC(C)(C)C1 [Compound 1-49] | – | – | 5 (A herbicidal effect or phytotoxicity of 90% or more) | 5 (A herbicidal effect or phytotoxicity of 90% or more) | 5 (A herbicidal effect or phytotoxicity of 90% or more) | 5 (A herbicidal effect or phytotoxicity of 90% or more) | – | 5 (A herbicidal effect or phytotoxicity of 90% or more) | 5 (A herbicidal effect or phytotoxicity of 90% or more)
